According to patent US9777021B2, “Lubricant additives” (Qatar Foundation, priority 2016, dated 2017):

Experiments:
[1] = Temperature-ramped pin-on-disk (ball-on-disk) tribometry, friction (COF); settings: for friction reduction: temperature ramp 180 to 350° C. over 30 min
Experimental: (§1) Silver complex 1 was combined with PAO4 and 15W40 military-grade engine oil (FF oil). The complex was dissolved in the minimal amount of hexane (1 mL per 1 g silver complex) and then added to the oil to achieve complex concentrations of 1.0, 2.5 and 5.0 wt %. Before testing, the oil-silver complex mixtures were stirred with a magnetic stir bar for 30 minutes to ensure a homogeneous dispersion.
Table 1 outlines the experimental conditions used in this study. A ball bearing made of M50 bearing steel with 62 HRC hardness and a diameter of 4 mm is used to apply a vertical load to a 52100 steel disk with 50 HRC hardness and a diameter to 3″ as the disk rotates. The surface of the disk is coated with a 2 mL solution of 1 in the desired base oil. The sliding test conditions for all the experiments were: Normal load=25 N, sliding velocity=200 rpm. In the temperature ramp experiments, the temperature is increased from 180-350° C. over 30 min in order to detect any change in frictional characteristics as the oil degrades, and partially evaporates, and once the metallic Ag is deposited.
Silver complex 1 was added to oil at 0.0, 1.0, 2.5, and 5 wt % loadings. A minimal amount of hexanes was added to aid in solubilizing the complex (1 mL hexanes/g of complex) before mixing with oil. The oils used are PAO4, a base oil with no additives, and a military-grade 15W40 oil, which is fully formulated (FF) but contains no silver-containing additives (confirmed by elemental analysis).

[2] = Wear analysis by white light interferometry of wear scars; settings: disks of temperature ramp tests
Experimental: After friction tests were completed, the disks were sonicated in a hexane bath to remove oil residue. The volume of the wear scar was measured using a Zygo NewView 7100 white light interferometer. The wear volume and material buildup around the wear scar were used to calculate the wear rate, which is defined as the volume removed per unit load per sliding distance. Each additive concentration in oil was tested twice for friction and wear performance. Energy-dispersive X-ray spectroscopy (EDS) on Hitachi S4800-II and Hitachi SU8030 Scanning Electron Microscopes (SEMs) was used to examine the morphology of the disk surface and deposited silver content.
The disks used in the temperature ramp tests (FIG. 8) were next analyzed by white light interferometry to determine the volume of the wear scars and the material buildup outside of the scar. The volume of material removed was normalized for load and the distance traveled during the test. […] The trend in wear rate is similar to the trend in COF (FIG. 7), with a 2.5 wt % loading producing the lowest amounts of wear. […] It is hypothesized that the increase in efficiency of additive 1 is attributable to the increased number of silver atoms/molecule and improved solubility in oil, which enables better dispersion of the additive in base oil.

Solubility in base oil = assay type: physicochemical
Experimental: as §1
Solubility in base oil is an important property for tribologically promising high temperature additives, and is something that challenged previous generations of silver-organic additives.
Silver complex 1 was added to oil at 0.0, 1.0, 2.5, and 5 wt % loadings. A minimal amount of hexanes was added to aid in solubilizing the complex (1 mL hexanes/g of complex) before mixing with oil.

## CCCCCCc1c(C)n[n-]c1C.[Ag+] [Compound 1, Ag(3,5-dimethyl-4-n-hexyl-pyrazole)]
[1]; 2.5 wt % loading in 15W40
  friction reduction: 30%
[1]; 2.5 wt % loading in PAO4
  friction reduction: 20%
[1]; 2.5 wt % loading in either base oil (PAO4, 15W40), temperature ramp 180 to 350° C.
  COF behaviour as the oil begins to degrade above ~275° C.: the COF does not increase
[2]; 2.5 wt % loading in 15W40
  wear reduction: 70%
[2]; 2.5 wt % loading in PAO4
  wear reduction: 60%
Solubility in base oil; 5 wt % loading, gentle heating at 40° C.
  solubility in PAO4: homogeneous solution
Solubility in base oil; cloudy suspension at room temperature, heating to 40° C. and magnetic stirring, 1 mL hexanes/g of complex
  solubility in oil (PAO4 or 15W40): dissolves fully
